Measured values published in BindingDB's records for doi:10.1016/j.bmcl.2009.01.012 (Pfizer, 2009).

assay: Antagonist activity at human recombinant CCR5 expressed in human HeLa-P4 cells assessed as inhibition of human HeLa-P4 cells binding to HIV1 gp160 expressing CHO cells by cell-cell fusion assay

| SMILES | IC50 |
| --- | --- |
| Cc1ccnc(C)c1C(=O)N1CC(N(C)C2CCN(C(c3ccccc3)c3ccccc3)CC2)C1 [(3-((1-benzhydrylpiperidin-4-yl)(methyl)amino)azetidin-1-yl)(2,4-dimethylpyridin-3-yl)methanone] | 102 nM |
| Cc1cccc(C)c1C(=O)N1CCC(C)(N2CCC(N(Cc3ccccc3)C(=O)C3CC3)CC2)CC1 [N-benzyl-N-(1'-(2,6-dimethylbenzoyl)-4'-methyl-1,4'-bipiperidin-4-yl)cyclopropanecarboxamide] | 0.5 nM |
| Cc1ccnc(C)c1C(=O)NCCN1CCCC(CC(c2ccccc2)c2ccccc2)C1 (racemic) [rac-N-(2-(3-(2,2-diphenylethyl)piperidin-1-yl)ethyl)-2,4-dimethylnicotinamide] | 56 nM |
| Cc1ccnc(C)c1C(=O)N1CCC(N2CC3CCC(C2)N3C(c2ccccc2)c2ccccc2)CC1 [(4-(8-benzhydryl-3,8-diazabicyclo[3.2.1]octan-3-yl)piperidin-1-yl)(2,4-dimethylpyridin-3-yl)methanone] | 313 nM |
| Cc1cccc(C)c1C(=O)N1CCC(N2CC(N(Cc3ccccc3)C(=O)C3CC3)C2)CC1 [N-benzyl-N-(1-(1-(2,6-dimethylbenzoyl)piperidin-4-yl)azetidin-3-yl)cyclopropanecarboxamide] | 5800 nM |
| Cc1cccc(C)c1C(=O)N1CCC(N2CC[C@@H](N(Cc3ccccc3)C(=O)C3CC3)C2)CC1 [(R)-N-benzyl-N-(1-(1-(2,6-dimethylbenzoyl)piperidin-4-yl)pyrrolidin-3-yl)cyclopropanecarboxamide] | 1 nM |
| CC(=O)NC(c1ccccc1)C1CN(C2CCN(C(=O)c3c(C)cccc3C)CC2)C1 (stereo not drawn) [N-((1-(1-(2,6-dimethylbenzoyl)piperidin-4-yl)azetidin-3-yl)(phenyl)methyl)acetamide] | 2490 nM |
| Cc1ccnc(C)c1C(=O)N1CCC(N(C)C2CN(C(c3ccccc3)c3ccccc3)C2)CC1 [(4-((1-benzhydrylazetidin-3-yl)(methyl)amino)piperidin-1-yl)(2,4-dimethylpyridin-3-yl)methanone] | 24 nM |
| Cc1cccc(C)c1C(=O)N1CCC(N2CC[C@H](N(Cc3ccccc3)C(=O)C3CC3)C2)CC1 [(S)-N-benzyl-N-(1-(1-(2,6-dimethylbenzoyl)piperidin-4-yl)pyrrolidin-3-yl)cyclopropanecarboxamide] | 1230 nM |
| Cc1cccc(C)c1C(=O)N1[C@@H]2CC[C@H]1C[C@H](N1CC[C@@H](N(Cc3ccccc3)C(=O)C3CC3)C1)C2 [exo-N-benzyl-N-((R)-1-(8-(2,6-dimethylbenzoyl)-8-azabicyclo[3.2.1]octan-3-yl)pyrrolidin-3-yl)cyclopropanecarboxamide] | 1 nM |
| Cc1ccnc(C)c1C(=O)N1CCC(N2C3CCC2CN(C(c2ccccc2)c2ccccc2)C3)CC1 [(4-(3-benzhydryl-3,8-diazabicyclo[3.2.1]octan-8-yl)piperidin-1-yl)(2,4-dimethylpyridin-3-yl)methanone] | 41 nM |
| Cc1cccc(C)c1C(=O)N1CCC(N2CCC(CNC(=O)C3CC3)(Cc3ccccc3)CC2)CC1 [N-((4-benzyl-1'-(2,6-dimethylbenzoyl)-1,4'-bipiperidin-4-yl)methyl)cyclopropanecarboxamide] | 145 nM |
| Cc1cccc(C)c1C(=O)N1CCC(N2CCC(N(Cc3ccccc3)C(=O)C3CCC3)CC2)CC1 [N-benzyl-N-(1'-(2,6-dimethylbenzoyl)-1,4'-bipiperidin-4-yl)cyclobutanecarboxamide] | 3 nM |
